Assay [1] relates to hypoxic-ischemic brain injury. In words: hypoxic-ischemic brain injury mouse model, cerebral infarct volume. The format is in vivo. The settings on record: direct acute administration of NPD1 (10 ng, 20 ng) after hypoxic-ischemic injury, compared to control (saline) group; FIG. 2A.

Each structure is given as a SMILES string.

Protocol for brain mitochondria: FIG. 2C is a western blot mean quantification for BAX 6A7 in naïve (n=6), saline (n=7) and NPD1 (n=8) at 4 h after ischemic injury.

In the case of `CC/C=C\C[C@H](O)\C=C/C=C/C=C/[C@H](O)C/C=C\C/C=C\CCC(=O)O` [NPD1, neuroprotection D1], the “mitochondrial Ca2+ buffering capacity” value in the assay on brain mitochondria (NPD1 treatment after hypoxic-ischemic injury) is on record as “preserved mitochondrial Ca2+ buffering capacity”. Further, the “mitochondria-related cell death pathways” value in the assay on brain mitochondria (NPD1 treatment, BAX 6A7 western blot at 4 h after ischemic injury (FIG. 2C)) was “reduced mitochondria-related cell death pathways”. In assay [1], the cerebral infarct volumes entry is on record as “significant reduction in cerebral infarct volumes”.

The values are drawn from US20240390502A1, “DELIVERY SYSTEMS FOR BIOACTIVE LIPIDS” (The Trustees of Columbia University in The City of New York, priority 2021, published 2024).
